Experiments:
rice (Diamant variety) = experiment: Rice seed treatment with BHMPA salts: germination energy and germination rate; format: in vivo
Experimental: Control—Soaking Seeds in Water;
(§1) Experimental versions—soaking seeds in BHMPA solutions and solutions of BHMPA Ca, Mg, Na, Co, Mn, Cu, and Zn salts at 1·10^−6-1·10^−12% concentrations (doses). The studies were conducted in laboratory in Petri dishes; seed bed—two layers of filter paper. 50 seeds soaked in water (control) and in the solutions of the tested compounds (experimental) were placed into each dish. Wheat, corn, and rice seeds were exposed for one hour.
Analysis was conducted according to the government standards GOST 12038-84 “Crop seeds. Technical conditions for determining the germination energy and germination rate”, GOST 12044-93 “Crop seeds. Methods for determining disease contamination.”
(§2) Seed germination energy and rate were calculated in percent as an arithmetic mean of the four experimental results (germination energy on the 4th day, wheat germination on the 8th day, rice and corn germination—on the 7th day). Germination was determined based on the germinating power indicators (length of the roots and sprouts and their wet and dry mass per 100 shoots).
(§3) The effect of pre-sowing seed treatment with the claimed BHMPA salts of biogenic metals was studied on winter wheat (Vershin variety), corn (Krasnodar 385 MV variety), and rice (Diamant variety).

[1] = system: winter wheat (Vershin variety); experiment: Winter wheat seed treatment with BHMPA salts: germinating power (length and mass of roots and sprouts); format: in vivo
Experimental: as §1, §2, §3
The above data describe the seed viability only at the initial stage of germination, while the germination ability at the later stage of germination is defined by the initial germinating power. The method for the determination of the germinating power comprises measuring the height of the sprouts and primary roots, as well as the biomass and the dry mass thereof per 100 seedlings. [M. A. Kartuzova. Initial Germinating Power as Method of Biological Assessment of Seed Quality. Selection and Seed Farming, #2, 1953].

[2] = rice seed treatment, solution 1 · 10^−9%
[3] = seed treatment, concentration 1 · 10^−6%
[4] = seed treatment, concentration 1 · 10^−7%
[5] = seed treatment, concentration 1 · 10^−8%
[6] = seed treatment, concentration 1 · 10^−9%
[7] = seed treatment, concentration 1 · 10^−10%
[8] = seed treatment, concentration 1 · 10^−11%
[9] = seed treatment, concentration 1 · 10^−12%
[10] = all the experiments (1·10^−6% to 1·10^−12%)
[11] = comparative study, 1·10^−12% solution

O=P([O-])(CO)CO.O=P([O-])(CO)CO.[Ca+2] [Ca-salt, Calcium BHMPA Salt]
Germination energy, % (rice (Diamant variety); [2]): 86.3%
Germination rate, % (rice (Diamant variety); [2]): 93.3%
Germination energy (rice (Diamant variety); rice, 1·10^−10% solution): 85.0%
Germination rate (rice (Diamant variety); rice, 1·10^−10% solution): 92.0%
Germination energy (rice (Diamant variety); [3]): 75.9%
Germination rate (rice (Diamant variety); [3]): 81.0%
Germination energy (rice (Diamant variety); [4]): 76.0%
Germination rate (rice (Diamant variety); [4]): 83.3%
Germination energy (rice (Diamant variety); [5]): 79.3%
Germination rate (rice (Diamant variety); [5]): 85.0%
Germination energy (rice (Diamant variety); [6]): 82.0%
Germination rate (rice (Diamant variety); [6]): 87.0%
Germination energy (rice (Diamant variety); [7]): 85.0%
Germination rate (rice (Diamant variety); [7]): 92.0%
Germination energy (rice (Diamant variety); [8]): 83.3%
Germination rate (rice (Diamant variety); [8]): 89.3%
Germination energy (rice (Diamant variety); [9]): 78.3%
Germination rate (rice (Diamant variety); [9]): 84.3%
Length, root ([1]; 1·10^−6% solution): 7.1 cm
Length, root, + % to control ([1]; 1·10^−6% solution): 27%
Length, sprout ([1]; 1·10^−6% solution): 6.9 cm
Length, sprout, + % to control ([1]; 1·10^−6% solution): 19%
Mass, dry, root ([1]; 1·10^−6% solution): 0.45 g/100 plantlings
Mass, dry, root, + % to control ([1]; 1·10^−6% solution): 41%
Mass, dry, sprout ([1]; 1·10^−6% solution): 0.47 g/100 plantlings
Mass, dry, sprout, + % to control ([1]; 1·10^−6% solution): 9%
Mass, wet, root ([1]; 1·10^−6% solution): 4.16 g/100 plantlings
Mass, wet, root, + % to control ([1]; 1·10^−6% solution): 12%
Mass, wet, sprout ([1]; 1·10^−6% solution): 5.32 g/100 plantlings
Mass, wet, sprout, + % to control ([1]; 1·10^−6% solution): 5%
Length, root ([1]; 1·10^−7% solution): 7.4 cm
Length, root, + % to control ([1]; 1·10^−7% solution): 34%
Length, sprout ([1]; 1·10^−7% solution): 7.4 cm
Mass, dry, root ([1]; 1·10^−7% solution): 0.47 g/100 plantlings
Mass, dry, root, + % to control ([1]; 1·10^−7% solution): 47%
Mass, dry, sprout ([1]; 1·10^−7% solution): 0.55 g/100 plantlings
Mass, dry, sprout, + % to control ([1]; 1·10^−7% solution): 30%
Mass, wet, root ([1]; 1·10^−7% solution): 4.89 g/100 plantlings
Mass, wet, root, + % to control ([1]; 1·10^−7% solution): 32%
Mass, wet, sprout ([1]; 1·10^−7% solution): 5.57 g/100 plantlings
Mass, wet, sprout, + % to control ([1]; 1·10^−7% solution): 10%
Length, root ([1]; 1·10^−8% solution): 6.5 cm
Length, root, + % to control ([1]; 1·10^−8% solution): 18%
Length, sprout ([1]; 1·10^−8% solution): 6.4 cm
Length, sprout, + % to control ([1]; 1·10^−8% solution): 10%
Mass, dry, root ([1]; 1·10^−8% solution): 0.39 g/100 plantlings
Mass, dry, root, + % to control ([1]; 1·10^−8% solution): 22%
Mass, dry, sprout ([1]; 1·10^−8% solution): 0.45 g/100 plantlings
Mass, dry, sprout, + % to control ([1]; 1·10^−8% solution): 5%
Mass, wet, root ([1]; 1·10^−8% solution): 4.08 g/100 plantlings
Mass, wet, root, + % to control ([1]; 1·10^−8% solution): 10%
Mass, wet, sprout ([1]; 1·10^−8% solution): 5.32 g/100 plantlings
Mass, wet, sprout, + % to control ([1]; 1·10^−8% solution): 5%
Length, root ([1]; 1·10^−9% solution): 6.5 cm
Length, root, + % to control ([1]; 1·10^−9% solution): 18%
Length, sprout ([1]; 1·10^−9% solution): 6.5 cm
Length, sprout, + % to control ([1]; 1·10^−9% solution): 12%
Mass, dry, root ([1]; 1·10^−9% solution): 0.41 g/100 plantlings
Mass, dry, root, + % to control ([1]; 1·10^−9% solution): 28%
Mass, dry, sprout ([1]; 1·10^−9% solution): 0.48 g/100 plantlings
Mass, dry, sprout, + % to control ([1]; 1·10^−9% solution): 12%
Mass, wet, root ([1]; 1·10^−9% solution): 4.20 g/100 plantlings
Mass, wet, root, + % to control ([1]; 1·10^−9% solution): 13%
Mass, wet, sprout ([1]; 1·10^−9% solution): 5.36 g/100 plantlings
Mass, wet, sprout, + % to control ([1]; 1·10^−9% solution): 5.5%
Length, root ([1]; 1·10^−10% solution): 6.6 cm
Length, root, + % to control ([1]; 1·10^−10% solution): 20%
Length, sprout ([1]; 1·10^−10% solution): 6.5 cm
Length, sprout, + % to control ([1]; 1·10^−10% solution): 12%
Mass, dry, root ([1]; 1·10^−10% solution): 0.45 g/100 plantlings
Mass, dry, root, + % to control ([1]; 1·10^−10% solution): 41%
Mass, dry, sprout ([1]; 1·10^−10% solution): 0.53 g/100 plantlings
Mass, dry, sprout, + % to control ([1]; 1·10^−10% solution): 23%
Mass, wet, root ([1]; 1·10^−10% solution): 4.34 g/100 plantlings
Mass, wet, root, + % to control ([1]; 1·10^−10% solution): 17%
Mass, wet, sprout ([1]; 1·10^−10% solution): 5.41 g/100 plantlings
Mass, wet, sprout, + % to control ([1]; 1·10^−10% solution): 6.5%
Length, root ([1]; 1·10^−11% solution): 7.2 cm
Length, root, + % to control ([1]; 1·10^−11% solution): 31%
Length, sprout ([1]; 1·10^−11% solution): 6.9 cm
Length, sprout, + % to control ([1]; 1·10^−11% solution): 19%
Mass, dry, root ([1]; 1·10^−11% solution): 0.46 g/100 plantlings
Mass, dry, root, + % to control ([1]; 1·10^−11% solution): 44%
Mass, dry, sprout ([1]; 1·10^−11% solution): 0.54 g/100 plantlings
Mass, dry, sprout, + % to control ([1]; 1·10^−11% solution): 25.5%
Mass, wet, root ([1]; 1·10^−11% solution): 4.70 g/100 plantlings
Mass, wet, root, + % to control ([1]; 1·10^−11% solution): 27%
Mass, wet, sprout ([1]; 1·10^−11% solution): 5.50 g/100 plantlings
Mass, wet, sprout, + % to control ([1]; 1·10^−11% solution): 8%
Length, root ([1]; 1·10^−12% solution): 7.4 cm
Length, root, + % to control ([1]; 1·10^−12% solution): 34%
Length, sprout ([1]; 1·10^−12% solution): 7.9 cm
Length, sprout, + % to control ([1]; 1·10^−12% solution): 36%
Mass, dry, root ([1]; 1·10^−12% solution): 0.48 g/100 plantlings
Mass, dry, root, + % to control ([1]; 1·10^−12% solution): 50%
Mass, dry, sprout ([1]; 1·10^−12% solution): 0.59 g/100 plantlings
Mass, dry, sprout, + % to control ([1]; 1·10^−12% solution): 37%
Mass, wet, root ([1]; 1·10^−12% solution): 5.19 g/100 plantlings
Mass, wet, root, + % to control ([1]; 1·10^−12% solution): 40%
Mass, wet, sprout ([1]; 1·10^−12% solution): 6.55 g/100 plantlings
Mass, wet, sprout, + % to control ([1]; 1·10^−12% solution): 29%
increase in mass of sprouts [1, 10]: 5%-50%
increase in size of sprouts [1, 10]: 10%-36%
Length, root [1, 11]: 9.7 cm
Length, root, + % to control [1, 11]: 11%
Length, sprout [1, 11]: 6.4 cm
Length, sprout, + % to control [1, 11]: 3%
Mass, dry, root [1, 11]: 0.66 g/100 plantlings
Mass, dry, root, + % to control [1, 11]: 6%
Mass, dry, sprout [1, 11]: 0.54 g/100 plantlings
Mass, dry, sprout, + % to control [1, 11]: 6%
Mass, wet, root [1, 11]: 5.03 g/100 plantlings
Mass, wet, root, + % to control [1, 11]: 40%
Mass, wet, sprout [1, 11]: 4.88 g/100 plantlings
Mass, wet, sprout, + % to control [1, 11]: 23%

Reference: US10781224B2, “Bis(oxymethyl)phosphinic acid and biogenic metal salts thereof as regulators of plant growth and development” (priority 2016, dated 2020)
